From PubChem BioAssay AID248 (DTP/NCI, 2004)
Values joined by “and” are separate entries in the source; they are usually repeats but may differ in a detail not shown here. Equal values may be shown once. Inconclusive results and toxic doses are left out.

System: L1210 leukemia ip in BDF1 mice, survival T/C
Assay: NCI In Vivo Anticancer Drug Screen. Data for tumor model L1210 Leukemia (intraperitoneal) in B6D2F1 (BDF1) mice
Conditions: endpoint: mean survival time, higher = longer survival
Procedure, shortened: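 Read-out is survival time, reported as the treated-group measurement over the vehicle-control measurement.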

[1] = dose: 75.0 mg/kg/injection, schedule: Q01DX001 (ip), vehicle: saline
[2] = dose: 100.0 mg/kg/injection, schedule: Q01DX009 (ip), vehicle: saline with Tween-80
[3] = dose: 200.0 mg/kg/injection, schedule: Q01DX009 (ip), vehicle: saline with Tween-80
[4] = dose: 400.0 mg/kg/injection, schedule: Q01DX009 (ip), vehicle: saline with Tween-80
[5] = dose: 100.0 mg/kg/injection, schedule: Q04DX003 (ip), vehicle: saline with Tween-80
[6] = dose: 200.0 mg/kg/injection, schedule: Q04DX003 (ip), vehicle: saline with Tween-80
[7] = dose: 400.0 mg/kg/injection, schedule: Q04DX003 (ip), vehicle: saline with Tween-80
[8] = dose: 100.0 mg/kg/injection, schedule: Q04DX003 (ip), vehicle: saline
[9] = dose: 200.0 mg/kg/injection, schedule: Q04DX003 (ip), vehicle: saline
[10] = dose: 400.0 mg/kg/injection, schedule: Q04DX003 (ip), vehicle: saline
[11] = dose: 100.0 mg/kg/injection, schedule: Q04DX002 (ip), vehicle: Klucel (hydroxypropylcellulose) (HPC)
[12] = dose: 200.0 mg/kg/injection, schedule: Q04DX002 (ip), vehicle: Klucel (hydroxypropylcellulose) (HPC)
[13] = dose: 400.0 mg/kg/injection, schedule: Q04DX002 (ip), vehicle: Klucel (hydroxypropylcellulose) (HPC)
[14] = dose: 100.0 mg/kg/injection, schedule: Q01DX001 (ip), vehicle: Klucel (hydroxypropylcellulose) (HPC)
[15] = dose: 200.0 mg/kg/injection, schedule: Q01DX001 (ip), vehicle: Klucel (hydroxypropylcellulose) (HPC)
[16] = dose: 100.0 mg/kg/injection, schedule: Q01DX001 (ip), vehicle: carboxymethylcellulose (CMC)

CCOC(=O)C(=N\Nc1ccc(Cl)cc1Cl)/C(C)=N\NC(N)=S
T/C [1]: 95 % of control | T/C (dose: 300.0 mg/kg/injection, schedule: Q01DX001 (ip), vehicle: saline): 104 % of control

CCCCCCCCCCC(=O)OCC1OC2C(Oc3nc(=N)ccn32)C1OC(=O)CCCCCCCCCC (stereo unspecified)
T/C (dose: 25.0 mg/kg/injection, schedule: Q01DX009 (ip), vehicle: water): 166 % of control | T/C (dose: 50.0 mg/kg/injection, schedule: Q01DX009 (ip), vehicle: water): 210 % of control

CC(=O)c1ccc(F)c(C)c1
T/C (dose: 100.0 mg/kg/injection, schedule: Q04DX003 (ip), vehicle: saline sonified): 93 % of control | T/C (dose: 200.0 mg/kg/injection, schedule: Q04DX003 (ip), vehicle: saline sonified): 97 % of control | T/C (dose: 400.0 mg/kg/injection, schedule: Q04DX003 (ip), vehicle: saline sonified): 93 % of control

CCOc1ccc(/C=N/NC(=O)CC2CCCCC2)cc1OC
T/C [2]: 90 % of control | T/C [3]: 88 % of control | T/C [4]: 90 % of control

CCOc1cc(/C=N/NC(=O)C(O)C(O)C(O)C(O)CO)ccc1O (stereo unspecified)
T/C [2]: 98 % of control and 103 % of control | T/C (dose: 100.0 mg/kg/injection, schedule: Q04DX002 (ip), vehicle: saline with Tween-80): 100 % of control and 90 % of control | T/C [5]: 95 % of control | T/C [3]: 95 % of control and 91 % of control | T/C (dose: 200.0 mg/kg/injection, schedule: Q04DX002 (ip), vehicle: saline with Tween-80): 108 % of control and 116 % of control | T/C [6]: 95 % of control | T/C [4]: 88 % of control and 90 % of control | T/C (dose: 400.0 mg/kg/injection, schedule: Q04DX002 (ip), vehicle: saline with Tween-80): 90 % of control and 91 % of control | T/C [7]: 93 % of control

O=C1C2CCC(C2)C1Cl (stereo unspecified)
T/C (dose: 62.5 mg/kg/injection, schedule: Q04DX003 (ip), vehicle: saline with Tween-80): 95 % of control | T/C [5]: 95 % of control | T/C (dose: 125.0 mg/kg/injection, schedule: Q04DX003 (ip), vehicle: saline with Tween-80): 103 % of control | T/C [6]: 97 % of control | T/C (dose: 250.0 mg/kg/injection, schedule: Q04DX003 (ip), vehicle: saline with Tween-80): 104 % of control | T/C [7]: 100 % of control

Nc1cccc(OCCc2ccccc2)c1
T/C (dose: 100.0 mg/kg/injection, schedule: Q01DX001 (ip), vehicle: saline with Tween-80): 96 % of control | T/C (dose: 200.0 mg/kg/injection, schedule: Q01DX001 (ip), vehicle: saline with Tween-80): 94 % of control | T/C (dose: 400.0 mg/kg/injection, schedule: Q01DX001 (ip), vehicle: saline with Tween-80): 96 % of control

CNN1CCOC1=O
T/C (dose: 100.0 mg/kg/injection, schedule: Q04DX002 (ip), vehicle: saline): 100 % of control | T/C (dose: 200.0 mg/kg/injection, schedule: Q04DX002 (ip), vehicle: saline): 100 % of control | T/C (dose: 400.0 mg/kg/injection, schedule: Q04DX002 (ip), vehicle: saline): 104 % of control

CC(=O)OC1CC(OC2C(O)CC(OC3C(O)CC(OC4CCC5(C)C(CCC6C5CC(O)C5(C)C(C7=CC(=O)OC7)CCC65O)C4)OC3C)OC2C)OC(C)C1O (stereo unspecified) (tested in a mixture with another compound)
T/C (dose: 100.0 mg/kg/injection, schedule: Q01DX001 (sc), vehicle: steriod suspending solution): 97 % of control | T/C (dose: 200.0 mg/kg/injection, schedule: Q01DX001 (sc), vehicle: steriod suspending solution): 101 % of control

COC1OC(CN2C(=O)c3ccccc3C2=O)C2OC(C)(C)OC12 (stereo unspecified)
T/C [5]: 106 % of control | T/C [6]: 97 % of control | T/C [7]: 96 % of control

Cc1cc(=O)c2cc(Cc3ccc4[nH]c(C)cc(=O)c4c3)ccc2[nH]1
T/C (dose: 50.0 mg/kg/injection, schedule: Q01DX009 (ip), vehicle: saline): 91 % of control | T/C (dose: 100.0 mg/kg/injection, schedule: Q01DX009 (ip), vehicle: saline): 88 % of control | T/C [8]: 94 % of control | T/C [9]: 94 % of control | T/C [10]: 93 % of control

O=C(OCC1OC(n2ccc(=S)[nH]c2=O)C(OC(=O)c2ccccc2)C1OC(=O)c1ccccc1)c1ccccc1 (stereo unspecified)
T/C (dose: 50.0 mg/kg/injection, schedule: Q01DX001 (ip), vehicle: saline): 98 % of control | T/C (dose: 100.0 mg/kg/injection, schedule: Q01DX001 (ip), vehicle: saline): 95 % of control | T/C (dose: 200.0 mg/kg/injection, schedule: Q01DX001 (ip), vehicle: saline): 101 % of control | T/C (dose: 400.0 mg/kg/injection, schedule: Q01DX001 (ip), vehicle: saline): 104 % of control

CC(=O)C1CCC2C3=CC=C4CC(OC(=O)C5CCCCC5)CCC4(C)C3=CCC12C (stereo unspecified)
T/C [2]: 100 % of control | T/C [3]: 89 % of control | T/C [4]: 108 % of control

Cc1cnc2c(N)nc(N)nc2n1
T/C [11]: 110 % of control | T/C [12]: 98 % of control | T/C [13]: 94 % of control

CCCCCCCCCCC(S(=O)(=O)CC)S(=O)(=O)CC
T/C [14]: 97 % of control | T/C [15]: 94 % of control

CN(C)CCSc1ncnc2nc[nH]c12
T/C [8]: 94 % of control | T/C [9]: 99 % of control | T/C [10]: 89 % of control

CCCCCCCCCCCCCCCc1cc(O)cc(O)c1
T/C (dose: 50.0 mg/kg/injection, schedule: Q01DX001 (ip), vehicle: other): 88 % of control | T/C (dose: 200.0 mg/kg/injection, schedule: Q01DX001 (ip), vehicle: other): 95 % of control | T/C (dose: 400.0 mg/kg/injection, schedule: Q01DX001 (ip), vehicle: other): 93 % of control

CCCCCCCCCCCCCCCCS(=O)(=O)N/N=C/c1ccc(Cl)cc1Cl
T/C [16]: 98 % of control | T/C (dose: 200.0 mg/kg/injection, schedule: Q01DX001 (ip), vehicle: carboxymethylcellulose (CMC)): 101 % of control | T/C (dose: 400.0 mg/kg/injection, schedule: Q01DX001 (ip), vehicle: carboxymethylcellulose (CMC)): 107 % of control

CCC(CC)(CCN)c1ccccc1
T/C (dose: 50.0 mg/kg/injection, schedule: Q01DX001 (ip), vehicle: carboxymethylcellulose (CMC)): 90 % of control | T/C [16]: 93 % of control

COC(=O)c1ccc(C(=O)O)cc1
T/C [5]: 100 % of control | T/C [6]: 102 % of control | T/C [7]: 91 % of control

COc1cc(OC)c2c(c1)-n1cccc1C2=O
T/C [11]: 101 % of control | T/C [12]: 104 % of control | T/C [13]: 93 % of control

COc1ccccc1CNC1CCCCC1
T/C [1]: 92 % of control

O=C(Nc1cc([N+](=O)[O-])cc([N+](=O)[O-])c1O)C(F)(F)F
T/C (dose: 25.0 mg/kg/injection, schedule: Q01DX001 (ip), vehicle: Klucel (hydroxypropylcellulose) (HPC)): 102 % of control | T/C (dose: 50.0 mg/kg/injection, schedule: Q01DX001 (ip), vehicle: Klucel (hydroxypropylcellulose) (HPC)): 96 % of control | T/C [14]: 100 % of control and 120 % of control | T/C [15]: 98 % of control

COC(=O)C(CSCSC)NC(=O)/C=C\c1ccccc1 (stereo unspecified)
T/C [2]: 88 % of control | T/C [5]: 97 % of control | T/C [3]: 88 % of control | T/C [6]: 97 % of control | T/C [4]: 96 % of control | T/C [7]: 94 % of control
